Test results: PubChem BioAssay (NCI)
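Assay format: 96-well plates, 48-hour exposure. The concentration for 50% growth inhibition is given as GI50. TGI: concentration producing complete growth inhibition.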

Tests used:
Assay in all cases: NCI-60 cell line screen, 48 h
SNB-75 CNS = test system: SNB-75 CNS
786-0 renal = test system: 786-0 renal
MALME-3M melanoma = test system: MALME-3M melanoma
SK-MEL-5 melanoma = test system: SK-MEL-5 melanoma
SK-MEL-28 melanoma = test system: SK-MEL-28 melanoma
HCT-116 colon = test system: HCT-116 colon
NCI-H226 lung = test system: NCI-H226 lung
NCI-H460 lung = test system: NCI-H460 lung
HOP-62 NSCLC = test system: HOP-62 NSCLC
TK-10 renal = test system: TK-10 renal
SF-295 CNS = test system: SF-295 CNS
K-562 leukemia = test system: K-562 leukemia
UO-31 renal = test system: UO-31 renal
SN12C renal = test system: SN12C renal
MCF7 breast = test system: MCF7 breast
SK-MEL-2 melanoma = test system: SK-MEL-2 melanoma
HOP-92 NSCLC = test system: HOP-92 NSCLC
DU-145 prostate = test system: DU-145 prostate
SF-539 CNS = test system: SF-539 CNS
HCC-2998 colon = test system: HCC-2998 colon
PC-3 prostate = test system: PC-3 prostate
IGROV1 ovarian = test system: IGROV1 ovarian
HT29 colon = test system: HT29 colon
UACC-62 melanoma = test system: UACC-62 melanoma
NCI-H23 lung = test system: NCI-H23 lung
ACHN renal = test system: ACHN renal
CCRF-CEM leukemia = test system: CCRF-CEM leukemia
OVCAR-8 ovarian = test system: OVCAR-8 ovarian
KM12 colon = test system: KM12 colon
COLO 205 colon = test system: COLO 205 colon
SK-OV-3 ovarian = test system: SK-OV-3 ovarian
HCT-15 colon = test system: HCT-15 colon
MDA-MB-231 breast = test system: MDA-MB-231 breast
RPMI-8226 leukemia = test system: RPMI-8226 leukemia
EKVX NSCLC = test system: EKVX NSCLC
OVCAR-5 ovarian = test system: OVCAR-5 ovarian
MDA-MB-435 = test system: MDA-MB-435
OVCAR-4 ovarian = test system: OVCAR-4 ovarian
UACC-257 melanoma = test system: UACC-257 melanoma
M14 melanoma = test system: M14 melanoma
SF-268 CNS = test system: SF-268 CNS
MOLT-4 leukemia = test system: MOLT-4 leukemia
SW-620 colon = test system: SW-620 colon
BT-549 breast = test system: BT-549 breast
T-47D breast = test system: T-47D breast
CAKI-1 renal = test system: CAKI-1 renal
NCI-H522 lung = test system: NCI-H522 lung
U251 CNS = test system: U251 CNS
HL-60(TB) leukemia = test system: HL-60(TB) leukemia
HS 578T breast = test system: HS 578T breast
A498 renal = test system: A498 renal
SNB-19 CNS = test system: SNB-19 CNS
LOX IMVI melanoma = test system: LOX IMVI melanoma
NCI/ADR-RES ovarian = test system: NCI/ADR-RES ovarian
A549 NSCLC = test system: A549 NSCLC
OVCAR-3 ovarian = test system: OVCAR-3 ovarian
RXF 393 renal = test system: RXF 393 renal

## O=C(CCCBr)Nc1ccccc1C#C/C=C\C#Cc1ccccc1C(F)(F)F
SNB-75 CNS
  GI50: 9.07 µM
  TGI: 40.6 µM
786-0 renal
  GI50: 13.5 µM
  TGI: > 50 µM
MALME-3M melanoma
  GI50: 18.7 µM
  TGI: > 50 µM
SK-MEL-5 melanoma
  GI50: 38.3 µM
  TGI: > 50 µM
SK-MEL-28 melanoma
  GI50: 10.3 µM
  TGI: 25.7 µM
HCT-116 colon
  GI50: 10.9 µM
  TGI: 43.7 µM
NCI-H226 lung
  GI50: 13.9 µM
  TGI: 44.8 µM
NCI-H460 lung
  GI50: 19.2 µM
  TGI: > 50 µM
HOP-62 NSCLC
  GI50: 4.76 µM
  TGI: 20.6 µM
TK-10 renal
  GI50: 38.8 µM
  TGI: > 50 µM
SF-295 CNS
  GI50: 27.6 µM
  TGI: > 50 µM
K-562 leukemia
  GI50: 21.6 µM
  TGI: > 50 µM
UO-31 renal
  GI50: 20.2 µM
  TGI: > 50 µM
SN12C renal
  GI50: 10.6 µM
  TGI: 29.9 µM
MCF7 breast
  GI50: 26.6 µM
  TGI: > 50 µM
SK-MEL-2 melanoma
  GI50: 27.8 µM
  TGI: > 50 µM
HOP-92 NSCLC
  GI50: 19.7 µM
  TGI: > 50 µM
DU-145 prostate
  GI50: > 50 µM
  TGI: > 50 µM
SF-539 CNS
  GI50: 21.2 µM
  TGI: > 50 µM
HCC-2998 colon
  GI50: 7.25 µM
  TGI: 20.3 µM
PC-3 prostate
  GI50: 23.1 µM
  TGI: > 50 µM
IGROV1 ovarian
  GI50: 6.75 µM
  TGI: 26.9 µM
HT29 colon
  GI50: 8.56 µM
  TGI: 20.8 µM
UACC-62 melanoma
  GI50: 14.1 µM
  TGI: > 50 µM
NCI-H23 lung
  GI50: 16.2 µM
  TGI: > 50 µM
ACHN renal
  GI50: 26.8 µM
  TGI: > 50 µM
CCRF-CEM leukemia
  GI50: 15 µM
  TGI: 35.7 µM
OVCAR-8 ovarian
  GI50: 24.2 µM
  TGI: > 50 µM
KM12 colon
  GI50: 17.4 µM
  TGI: > 50 µM
COLO 205 colon
  GI50: > 50 µM
  TGI: > 50 µM
SK-OV-3 ovarian
  GI50: > 50 µM
  TGI: > 50 µM
HCT-15 colon
  GI50: 20.6 µM
  TGI: > 50 µM
MDA-MB-231 breast
  GI50: 12.8 µM
  TGI: 33.4 µM
RPMI-8226 leukemia
  GI50: 14.2 µM
  TGI: > 50 µM
EKVX NSCLC
  GI50: 39.1 µM
  TGI: > 50 µM
OVCAR-5 ovarian
  GI50: > 50 µM
  TGI: > 50 µM
MDA-MB-435
  GI50: 13.5 µM
  TGI: 32.6 µM
OVCAR-4 ovarian
  GI50: 10.1 µM
  TGI: 31.9 µM
UACC-257 melanoma
  GI50: 19.1 µM
  TGI: > 50 µM
M14 melanoma
  GI50: 12.1 µM
  TGI: 29.5 µM
SF-268 CNS
  GI50: 35.3 µM
  TGI: > 50 µM
MOLT-4 leukemia
  GI50: 16.3 µM
  TGI: > 50 µM
SW-620 colon
  GI50: 22.5 µM
  TGI: > 50 µM
BT-549 breast
  GI50: 19.8 µM
  TGI: > 50 µM
T-47D breast
  GI50: > 50 µM
  TGI: > 50 µM
CAKI-1 renal
  GI50: 15.3 µM
  TGI: > 50 µM
NCI-H522 lung
  GI50: 15.5 µM
  TGI: > 50 µM
U251 CNS
  GI50: 11.3 µM
  TGI: 31.1 µM
HL-60(TB) leukemia
  GI50: 16.1 µM
  TGI: 45 µM
HS 578T breast
  GI50: 36.5 µM
  TGI: > 50 µM
A498 renal
  GI50: 15.8 µM
  TGI: 47.3 µM
SNB-19 CNS
  GI50: > 50 µM
  TGI: > 50 µM
LOX IMVI melanoma
  GI50: 22.6 µM
  TGI: > 50 µM
NCI/ADR-RES ovarian
  GI50: 11.9 µM
  TGI: 29.2 µM
A549 NSCLC
  GI50: 19.3 µM
  TGI: > 50 µM
OVCAR-3 ovarian
  GI50: 13.3 µM
  TGI: 48.9 µM
RXF 393 renal
  GI50: 8.35 µM
  TGI: 28.4 µM
